Reference: ChEMBL document CHEMBL1201862, “PubChem BioAssay data set” (2004)
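Compound exposure: 48 hours, 5 concentrations, 96-well plates. GI50 is the concentration that inhibits growth by half.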 Activity calls are given as the source filed them. Rule as the data show it: active = GI50 up to about 1.1 µM and inactive = higher.

Key:
Assay in all cases: DTP human tumour cell line panel, 48 h
[1] = system: UO-31
[2] = system: COLO 205
[3] = system: SF-539
[4] = system: A549
[5] = system: OVCAR-4
[6] = system: OVCAR-3
[7] = system: SN12C
[8] = system: IGROV-1
[9] = system: MOLT-4
[10] = system: KM12
[11] = system: TK-10
[12] = system: SNB-19
[13] = system: HOP-62
[14] = system: SF-268
[15] = system: SK-OV-3
[16] = system: Malme-3M
[17] = system: NCI-H23
[18] = system: SF-295
[19] = system: UACC-257

## C/C(CC(=O)Nc1ccc(C)c(C)c1)=N\N(c1ccccc1)c1ccccc1
[1]
  GI50: 46 µM (inactive)
[2]
  GI50: 18.3 µM (inactive)
[3]
  GI50: > 100 µM (inactive)
[4]
  GI50: > 100 µM (inactive)
[5]
  GI50: 43.4 µM (inactive)
[6]
  GI50: > 100 µM (inactive)
[7]
  GI50: 42.9 µM (inactive)
[8]
  GI50: 64.4 µM (inactive)
[9]
  GI50: 62.5 µM (inactive)
[10]
  GI50: > 100 µM (inactive)
[11]
  GI50: > 100 µM (inactive)
[12]
  GI50: > 100 µM (inactive)
[13]
  GI50: > 100 µM (inactive)
[14]
  GI50: 58.7 µM (inactive)
[15]
  GI50: > 100 µM (inactive)
[16]
  GI50: > 100 µM (inactive)
[17]
  GI50: > 100 µM (inactive)
[18]
  GI50: > 100 µM (inactive)
[19]
  GI50: > 100 µM (inactive)

## COC(=O)/C=C1\CCC(C)O1 (stereo not given)
[1]
  GI50: > 100 µM (inactive)
[2]
  GI50: > 100 µM (inactive)
[3]
  GI50: > 100 µM (inactive)
[4]
  GI50: > 100 µM (inactive)
[5]
  GI50: > 100 µM (inactive)
[6]
  GI50: > 100 µM (inactive)
[7]
  GI50: > 100 µM (inactive)
[8]
  GI50: > 100 µM (inactive)
[9]
  GI50: > 100 µM (inactive)
[10]
  GI50: > 100 µM (inactive)
[11]
  GI50: > 100 µM (inactive)
[12]
  GI50: > 100 µM (inactive)
[13]
  GI50: > 100 µM (inactive)
[14]
  GI50: > 100 µM (inactive)
[15]
  GI50: > 100 µM (inactive)
[16]
  GI50: > 100 µM (inactive)
[17]
  GI50: > 100 µM (inactive)
[18]
  GI50: > 100 µM (inactive)
[19]
  GI50: > 100 µM (inactive)

## C=C1C[C@]23C[C@@]1(O)CC[C@H]2[C@@]12C=C[C@H](O)[C@@](C)(C(=O)O1)[C@H]2[C@@H]3C(=O)O [GIBBERELLIN A3]
[1]
  GI50: > 100 µM (inactive)
[2]
  GI50: > 100 µM (inactive)
[3]
  GI50: > 100 µM (inactive)
[4]
  GI50: > 100 µM (inactive)
[5]
  GI50: > 100 µM (inactive)
[6]
  GI50: > 100 µM (inactive)
[7]
  GI50: > 100 µM (inactive)
[8]
  GI50: > 100 µM (inactive)
[9]
  GI50: > 100 µM (inactive)
[10]
  GI50: > 100 µM (inactive)
[11]
  GI50: > 100 µM (inactive)
[12]
  GI50: > 100 µM (inactive)
[13]
  GI50: > 100 µM (inactive)
[14]
  GI50: > 100 µM (inactive)
[15]
  GI50: > 100 µM (inactive)
[16]
  GI50: > 100 µM (inactive)
[17]
  GI50: > 100 µM (inactive)
[18]
  GI50: > 100 µM (inactive)
[19]
  GI50: > 100 µM (inactive)

## Cc1c[n+]2c3ccccc3c3ccccc3c2s1.[O-][Cl+3]([O-])([O-])[O-]
[1]
  GI50: 3.25 µM (inactive)
[2]
  GI50: 7.89 µM (inactive)
[3]
  GI50: 4.59 µM (inactive)
[4]
  GI50: 4.01 µM (inactive)
[5]
  GI50: 8.73 µM (inactive)
[6]
  GI50: 0.787 µM (active)
[7]
  GI50: 2.61 µM (inactive)
[8]
  GI50: 29.4 µM (inactive)
[9]
  GI50: 2.03 µM (inactive)
[10]
  GI50: 1.07 µM (active)
[11]
  GI50: 1.39 µM (inactive)
[12]
  GI50: 3.36 µM (inactive)
[13]
  GI50: 6.52 µM (inactive)
[14]
  GI50: 0.697 µM (active)
[15]
  GI50: 10.7 µM (inactive)
[16]
  GI50: 2.49 µM (inactive)
[17]
  GI50: 0.422 µM (active)
[18]
  GI50: 5.97 µM (inactive)
[19]
  GI50: 4.26 µM (inactive)

## C[C@]12CCC3c4ccc(OC(=O)c5ccccc5)cc4CC[C@H]3C1CC[C@@H]2OC(=O)C12OC1CCC2=O (stereo not given in full)
[1]
  GI50: 5.75 µM (inactive)
[2]
  GI50: 2.84 µM (inactive)
[3]
  GI50: 2.34 µM (inactive)
[4]
  GI50: 5.64 µM (inactive)
[5]
  GI50: 5.41 µM (inactive)
[6]
  GI50: 3.13 µM (inactive)
[7]
  GI50: 5.9 µM (inactive)
[8]
  GI50: 4.63 µM (inactive)
[9]
  GI50: 2.32 µM (inactive)
[10]
  GI50: 6.93 µM (inactive)
[11]
  GI50: 18.7 µM (inactive)
[12]
  GI50: 20.5 µM (inactive)
[13]
  GI50: 6.21 µM (inactive)
[14]
  GI50: 2.68 µM (inactive)
[15]
  GI50: 15.8 µM (inactive)
[16]
  GI50: 5.85 µM (inactive)
[17]
  GI50: 4.73 µM (inactive)
[18]
  GI50: 12.3 µM (inactive)
[19]
  GI50: 5.81 µM (inactive)

## CC1(O)C(C)(O)C(C)(O)C1(C)O (stereo not given)
[1]
  GI50: > 100 µM (inactive)
[2]
  GI50: > 100 µM (inactive)
[3]
  GI50: > 100 µM (inactive)
[4]
  GI50: > 100 µM (inactive)
[5]
  GI50: > 100 µM (inactive)
[6]
  GI50: > 100 µM (inactive)
[7]
  GI50: > 100 µM (inactive)
[8]
  GI50: > 100 µM (inactive)
[9]
  GI50: > 100 µM (inactive)
[10]
  GI50: > 100 µM (inactive)
[11]
  GI50: > 100 µM (inactive)
[12]
  GI50: > 100 µM (inactive)
[13]
  GI50: > 100 µM (inactive)
[14]
  GI50: > 100 µM (inactive)
[15]
  GI50: > 100 µM (inactive)
[16]
  GI50: > 100 µM (inactive)
[17]
  GI50: > 100 µM (inactive)
[18]
  GI50: > 100 µM (inactive)
[19]
  GI50: > 100 µM (inactive)

## CCCCN(CCCC)C(=O)C(=O)CC(=O)/C=C/c1ccccc1
[1]
  GI50: > 100 µM (inactive)
[2]
  GI50: > 100 µM (inactive)
[3]
  GI50: > 100 µM (inactive)
[4]
  GI50: > 100 µM (inactive)
[5]
  GI50: > 100 µM (inactive)
[6]
  GI50: > 100 µM (inactive)
[7]
  GI50: > 100 µM (inactive)
[8]
  GI50: > 100 µM (inactive)
[9]
  GI50: > 100 µM (inactive)
[10]
  GI50: > 100 µM (inactive)
[11]
  GI50: > 100 µM (inactive)
[12]
  GI50: > 100 µM (inactive)
[13]
  GI50: > 100 µM (inactive)
[14]
  GI50: > 100 µM (inactive)
[15]
  GI50: > 100 µM (inactive)
[16]
  GI50: > 100 µM (inactive)
[17]
  GI50: > 100 µM (inactive)
[18]
  GI50: > 100 µM (inactive)
[19]
  GI50: > 100 µM (inactive)

## CCCCNC(=O)OCC(COc1ccccc1OC)OC(=O)NCCCC (stereo not given)
[1]
  GI50: 63.8 µM (inactive)
[2]
  GI50: > 100 µM (inactive)
[3]
  GI50: > 100 µM (inactive)
[4]
  GI50: > 100 µM (inactive)
[5]
  GI50: > 100 µM (inactive)
[6]
  GI50: > 100 µM (inactive)
[7]
  GI50: > 100 µM (inactive)
[8]
  GI50: > 100 µM (inactive)
[9]
  GI50: > 100 µM (inactive)
[10]
  GI50: > 100 µM (inactive)
[11]
  GI50: > 100 µM (inactive)
[12]
  GI50: > 100 µM (inactive)
[13]
  GI50: > 100 µM (inactive)
[14]
  GI50: > 100 µM (inactive)
[15]
  GI50: > 100 µM (inactive)
[16]
  GI50: > 100 µM (inactive)
[17]
  GI50: > 100 µM (inactive)
[18]
  GI50: > 100 µM (inactive)
[19]
  GI50: > 100 µM (inactive)

## Cn1cc(-c2ccc3c4ccccc4n(C)c3c2)c2ccccc21
[1]
  GI50: > 100 µM (inactive)
[2]
  GI50: > 100 µM (inactive)
[3]
  GI50: > 100 µM (inactive)
[4]
  GI50: > 100 µM (inactive)
[5]
  GI50: > 100 µM (inactive)
[6]
  GI50: > 100 µM (inactive)
[7]
  GI50: > 100 µM (inactive)
[8]
  GI50: > 100 µM (inactive)
[9]
  GI50: > 100 µM (inactive)
[10]
  GI50: 93.3 µM (inactive)
[11]
  GI50: > 100 µM (inactive)
[12]
  GI50: > 100 µM (inactive)
[13]
  GI50: > 100 µM (inactive)
[14]
  GI50: > 100 µM (inactive)
[15]
  GI50: > 100 µM (inactive)
[16]
  GI50: > 100 µM (inactive)
[17]
  GI50: > 100 µM (inactive)
[18]
  GI50: 94.4 µM (inactive)
[19]
  GI50: > 100 µM (inactive)

## CCOC(=O)NN1C(=O)C(=P(c2ccccc2)(c2ccccc2)c2ccccc2)C(C(=O)OC)=C1C
[1]
  GI50: > 100 µM (inactive)
[2]
  GI50: > 100 µM (inactive)
[3]
  GI50: > 100 µM (inactive)
[4]
  GI50: > 100 µM (inactive)
[5]
  GI50: > 100 µM (inactive)
[6]
  GI50: > 100 µM (inactive)
[7]
  GI50: > 100 µM (inactive)
[8]
  GI50: > 100 µM (inactive)
[9]
  GI50: > 100 µM (inactive)
[10]
  GI50: > 100 µM (inactive)
[11]
  GI50: > 100 µM (inactive)
[12]
  GI50: > 100 µM (inactive)
[13]
  GI50: > 100 µM (inactive)
[14]
  GI50: > 100 µM (inactive)
[15]
  GI50: > 100 µM (inactive)
[16]
  GI50: > 100 µM (inactive)
[17]
  GI50: > 100 µM (inactive)
[18]
  GI50: > 100 µM (inactive)
[19]
  GI50: > 100 µM (inactive)
